{"source": "patent US20210047297A1", "about": "“4-(3-AMINO-6-FLUORO-1H-INDAZOL-5-YL)-1,2,6-TRIMETHYL-1,4-DIHYDROPYRIDINE-3,5-DIC ARBONITRILE COMPOUNDS FOR TREATING HYPERPROLIFERATIVE DISORDERS” (Bayer Pharma Aktiengesellschaft, priority 2018, published 2021)", "note": "pIC50: −log10 of the molar value.", "data": [{"target": "T1, GST-AMPKα2/ß1/γ1 complex (full-length human AMPKα2) (Homo sapiens, UniProt P54619+P54646+Q9Y478)", "T1 construct": "purchased Carna Biosciences 02-114; host or cells: baculovirus expression system", "T1 sequence (P54646 whole entry)": "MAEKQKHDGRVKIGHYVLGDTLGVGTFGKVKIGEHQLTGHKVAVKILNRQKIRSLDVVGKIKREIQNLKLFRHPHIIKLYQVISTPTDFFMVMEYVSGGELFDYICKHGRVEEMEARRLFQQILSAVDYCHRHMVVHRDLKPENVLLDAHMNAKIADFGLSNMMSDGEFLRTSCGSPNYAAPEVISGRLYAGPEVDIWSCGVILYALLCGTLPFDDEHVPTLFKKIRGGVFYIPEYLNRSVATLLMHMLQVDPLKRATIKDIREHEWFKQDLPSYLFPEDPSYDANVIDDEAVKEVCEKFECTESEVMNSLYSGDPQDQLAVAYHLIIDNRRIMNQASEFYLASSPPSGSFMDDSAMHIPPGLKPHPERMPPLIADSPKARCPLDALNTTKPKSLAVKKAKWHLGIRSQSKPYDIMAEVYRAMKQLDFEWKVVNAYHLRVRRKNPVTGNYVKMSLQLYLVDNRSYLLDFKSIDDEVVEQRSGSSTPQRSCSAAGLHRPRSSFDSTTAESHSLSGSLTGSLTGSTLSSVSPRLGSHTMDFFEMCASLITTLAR", "T1 sequence (Q9Y478 whole entry partner)": "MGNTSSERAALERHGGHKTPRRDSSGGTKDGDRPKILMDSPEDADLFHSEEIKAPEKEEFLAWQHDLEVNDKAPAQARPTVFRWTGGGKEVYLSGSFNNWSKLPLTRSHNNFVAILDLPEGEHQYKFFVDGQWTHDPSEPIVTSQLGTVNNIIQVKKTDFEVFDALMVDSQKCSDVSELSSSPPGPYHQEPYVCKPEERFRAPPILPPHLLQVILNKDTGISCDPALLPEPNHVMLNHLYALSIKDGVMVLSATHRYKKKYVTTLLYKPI", "T1 sequence (P54619 whole entry partner)": "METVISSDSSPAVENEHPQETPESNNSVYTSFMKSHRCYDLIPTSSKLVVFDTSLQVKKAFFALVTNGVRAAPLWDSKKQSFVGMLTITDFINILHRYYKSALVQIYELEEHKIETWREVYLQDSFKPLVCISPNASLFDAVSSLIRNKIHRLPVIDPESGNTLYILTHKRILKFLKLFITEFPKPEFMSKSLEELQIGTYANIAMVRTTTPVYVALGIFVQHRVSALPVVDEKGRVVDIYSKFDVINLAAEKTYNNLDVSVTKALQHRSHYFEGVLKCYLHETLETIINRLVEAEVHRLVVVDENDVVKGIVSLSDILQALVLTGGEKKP", "assay": "AMPK high ATP assay (TR-FRET-based AMPK activity inhibition assay)", "type": "biochemical", "conditions": "ATP concentration of 1 mM; median; read-out: AMPK high ATP assay IC50 [mol/l] (median)", "description": "AMPK inhibitory activity of compounds of the present invention at an ATP concentration of 1 mM was quantified employing the TR-FRET-based AMPK activity inhibition assay as described in the following paragraphs.\nRecombinant fusion protein of N-terminal Glutathion-S-Transferase (GST) and full-length human AMPKα2 [1-552(end) amino acids of accession number NP_006243.2] co-expressed with GST-PRKAB1 [1-270(end) amino acids of accession number NP_006244.2] and PRKAG1 [1-331(end) amino acids of accession number NP_002724.1] using a baculovirus expression system, purified as GST-AMPKα2/ß1/γ1 complex by using glutathione sepharose chromatography, activated with His-tagged CaMKK1 and subsequently purified by using glutathione sepharose chromatography, was purchased from Carna Biosciences (product number 02-114) and used as kinase. As substrate for the kinase reaction biotinylated peptide biotin-Ahx-HMRSAMSFAEPG (C-terminus in amide form) was used which can be purchased e.g. form the company Biosyntan (Berlin-Buch, Germany). For the assay 50 nl of a 100 fold concentrated solution of the test compound in DMSO was pipetted into either a black low volume 384 well microtiter plate or a black 1536 well microtiter plate (both Greiner Bio-One, Frickenhausen, Germany), 2 μl of a solution of GST-AMPKα2/ß1/γ1 in aqueous assay buffer [50 mM Hepes pH 7.5, 10 mM MgCl2, 5 mM β-glycerophosphate, 2.5 mM dithiothreitol (DTT), 0.5 mM EGTA, 0.01% (w/v) bovine γ-globulin (Sigma-Aldrich, #G5009), 0.01% (v/v) Triton X-100 (Sigma-Aldrich, #T9284)] were added and the mixture was incubated for 15 min at 22° C. to allow pre-binding of the test compounds to the enzyme before the start of the kinase reaction. Then the kinase reaction was started by the addition of 3 μl of a solution of adenosine-tri-phosphate (ATP, 1.67 mM=>final conc. in the 5 μl assay volume is 1 mM), adenosine-mono-phosphate (AMP, 3.33 μM=>final conc. in the 5 μl assay volume is 2 μM), and substrate (0.83 μM=>final conc. in the 5 μl assay volume is 0.5 μM) in assay buffer and the resulting mixture was incubated for a reaction time of 30 min at 22° C. The concentration of GST-AMPK α2/ß1/γ1 was adjusted depending of the activity of the enzyme lot and was chosen appropriate to have the assay in the linear range, a typical concentration was 0.08 nM. The reaction was stopped by the addition of 3 μl of a solution of TR-FRET detection reagents (0.2 μM streptavidine-XL665 [Cisbio Bioassays, Codolet, France] and 3.33 nM anti-phosho-Serine antibody [Merck Millipore, “STK antibody”, cat. #35-002] and 3.33 nM anti mouse IgG-Tb cryptate, a Terbium-cryptate labelled anti-mouse IgG antibody [Cisbio Bioassays, Codolet, France] in an aqueous EDTA-solution (166.7 mM EDTA, 0.06 (w/v) bovine serum albumin in 50 mM HEPES pH 7.5).\nThe resulting mixture was incubated 1 h at 22° C. to allow the formation of complex between the phosphorylated biotinylated peptide and the detection reagents. Subsequently the amount of phosphorylated substrate was evaluated by measurement of the resonance energy transfer from the Tb-cryptate to the streptavidine-XL665. Therefore, the fluorescence emissions at 620 nm and 665 nm after excitation at 350 nm was measured in a TR-FRET reader, e.g. a Pherastar FS (BMG Labtechnologies, Offenburg, Germany) or a Viewlux (Perkin-Elmer). The ratio of the emissions at 665 nm and at […] was taken as the measure for the amount of phosphorylated substrate. The data were normalised (enzyme reaction without inhibitor=0 inhibition, all other assay components but no enzyme=100% inhibition).", "values": [{"smiles": "CC1=C(C#N)C(c2cc3c(NC(=O)c4cnn(CCN5CCCC5)c4C(F)(F)F)n[nH]c3c(C)c2F)C(C#N)=C(C)N1C", "note": "[Example 19, N-[5-(3,5-dicyano-1,2,6-trimethyl-1,4-dihydropyridin-4-yl)-6-fluoro-7-methyl-1H-indazol-3-yl]-1-[2-(pyrrolidin-1-yl)ethyl]-5-(trifluoromethyl)-1H-pyrazole-4-carboxamide]", "pIC50": 7.42}, {"smiles": "C=Cc1c(F)c(C2C(C#N)=C(C)N(C)C(C)=C2C#N)cc2c(NC(=O)c3cc(C)nn3CC)n[nH]c12", "note": "[Example 25, N-[5-(3,5-dicyano-1,2,6-trimethyl-1,4-dihydropyridin-4-yl)-7-ethenyl-6-fluoro-1H-indazol-3-yl]-1-ethyl-3-methyl-1H-pyrazole-5-carboxamide]", "pIC50": 6.82}, {"smiles": "CCc1c(F)c(C2C(C#N)=C(C)N(C)C(C)=C2C#N)cc2c(NC(=O)c3ccccc3Cl)n[nH]c12", "note": "[Example 31, 2-chloro-N-[5-(3,5-dicyano-1,2,6-trimethyl-1,4-dihydropyridin-4-yl)-7-ethyl-6-fluoro-1H-indazol-3-yl]benzamide]", "pIC50": 7.15}, {"smiles": "CC1=C(C#N)C(c2cc3c(NC(=O)c4ccccc4Cl)n[nH]c3c(C(F)(F)F)c2F)C(C#N)=C(C)N1C", "note": "[Example 32, 2-chloro-N-[5-(3,5-dicyano-1,2,6-trimethyl-1,4-dihydropyridin-4-yl)-6-fluoro-7-(trifluoromethyl)-1H-indazol-3-yl]benzamide]", "pIC50": 7.98}, {"smiles": "CCc1ccccc1C(=O)Nc1n[nH]c2c(CC)c(F)c(C3C(C#N)=C(C)N(C)C(C)=C3C#N)cc12", "note": "[Example 27, N-[5-(3,5-dicyano-1,2,6-trimethyl-1,4-dihydropyridin-4-yl)-7-ethyl-6-fluoro-1H-indazol-3-yl]-2-ethylbenzamide]", "pIC50": 7.23}, {"smiles": "CCc1ccccc1C(=O)Nc1n[nH]c2c(C)c(F)c(C3C(C#N)=C(C)N(C)C(C)=C3C#N)cc12", "note": "[Example 8, N-[5-(3,5-dicyano-1,2,6-trimethyl-1,4-dihydropyridin-4-yl)-6-fluoro-7-methyl-1H-indazol-3-yl]-2-ethylbenzamide]", "pIC50": 7.82}, {"smiles": "CC1=C(C#N)C(c2cc3c(NC(=O)c4cn(C)nc4C(F)(F)F)n[nH]c3c(I)c2F)C(C#N)=C(C)N1C", "note": "[Example 3, N-[5-(3,5-dicyano-1,2,6-trimethyl-1,4-dihydropyridin-4-yl)-6-fluoro-7-iodo-1H-indazol-3-yl]-1-methyl-3-(trifluoromethyl)-1H-pyrazole-4-carboxamide]", "pIC50": 7.27}, {"smiles": "COC(=O)C12C3C4C1C1C2C3C41C(=O)Nc1n[nH]c2c(C)c(F)c(C3C(C#N)=C(C)N(C)C(C)=C3C#N)cc12", "note": "(centres unmarked) [Example 22, methyl 4-{[5-(3,5-dicyano-1,2,6-trimethyl-1,4-dihydropyridin-4-yl)-6-fluoro-7-methyl-1H-indazol-3-yl]carbamoyl}cubane-1-carboxylate]", "pIC50": 7.18}, {"smiles": "CC1=C(C#N)C(c2cc3c(NC(=O)c4cn(C)nc4C(F)(F)F)n[nH]c3c(C)c2F)C(C#N)=C(C)N1C", "note": "[Example 9, N-[5-(3,5-dicyano-1,2,6-trimethyl-1,4-dihydropyridin-4-yl)-6-fluoro-7-methyl-1H-indazol-3-yl]-1-methyl-3-(trifluoromethyl)-1H-pyrazole-4-carboxamide]", "pIC50": 7.91}, {"smiles": "CC1=C(C#N)C(c2cc3c(NC(=O)c4c(F)cccc4F)n[nH]c3c(C)c2F)C(C#N)=C(C)N1C", "note": "[Example 7, N-[5-(3,5-dicyano-1,2,6-trimethyl-1,4-dihydropyridin-4-yl)-6-fluoro-7-methyl-1H-indazol-3-yl]-2,6-difluorobenzamide]", "pIC50": 7.71}, {"smiles": "CCn1cc(C(=O)Nc2n[nH]c3c(C)c(F)c(C4C(C#N)=C(C)N(C)C(C)=C4C#N)cc23)c(C)n1", "note": "[Example 12, N-[5-(3,5-dicyano-1,2,6-trimethyl-1,4-dihydropyridin-4-yl)-6-fluoro-7-methyl-1H-indazol-3-yl]-1-ethyl-3-methyl-1H-pyrazole-4-carboxamide]", "pIC50": 7.80}, {"smiles": "CC1=C(C#N)C(c2cc3c(NC(=O)C45C6C7C4C4C5C6C74C(=O)N4CCC4)n[nH]c3c(C)c2F)C(C#N)=C(C)N1C", "note": "(centres unmarked) [Example 23, 4-(azetidine-1-carbonyl)-N-[5-(3,5-dicyano-1,2,6-trimethyl-1,4-dihydropyridin-4-yl)-6-fluoro-7-methyl-1H-indazol-3-yl]cubane-1-carboxamide]", "pIC50": 6.98}, {"smiles": "CC1=C(C#N)C(c2cc3c(NC(=O)C45C6C7C4C4C5C6C74C(=O)N4CCN(C)CC4)n[nH]c3c(C)c2F)C(C#N)=C(C)N1C", "note": "(centres unmarked) [Example 24, N-[5-(3,5-dicyano-1,2,6-trimethyl-1,4-dihydropyridin-4-yl)-6-fluoro-7-methyl-1H-indazol-3-yl]-4-(4-methylpiperazine-1-carbonyl)cubane-1-carboxamide]", "pIC50": 7.22}, {"smiles": "CC1=C(C#N)C(c2cc3c(NC(=O)c4cn(CCN5CCCC5)nc4C(F)(F)F)n[nH]c3c(C)c2F)C(C#N)=C(C)N1C", "note": "[Example 16, N-[5-(3,5-dicyano-1,2,6-trimethyl-1,4-dihydropyridin-4-yl)-6-fluoro-7-methyl-1H-indazol-3-yl]-1-[2-(pyrrolidin-1-yl)ethyl]-3-(trifluoromethyl)-1H-pyrazole-4-carboxamide]", "pIC50": 8.24}, {"smiles": "CCn1nc(C)cc1C(=O)Nc1n[nH]c2c(C(F)(F)F)c(F)c(C3C(C#N)=C(C)N(C)C(C)=C3C#N)cc12", "note": "[Example 33, N-[5-(3,5-dicyano-1,2,6-trimethyl-1,4-dihydropyridin-4-yl)-6-fluoro-7-(trifluoromethyl)-1H-indazol-3-yl]-1-ethyl-3-methyl-1H-pyrazole-5-carboxamide]", "pIC50": 7.60}, {"smiles": "CCc1c(F)c(C2C(C#N)=C(C)N(C)C(C)=C2C#N)cc2c(NC(=O)c3ccnn3C(C)C)n[nH]c12", "note": "[Example 28, N-[5-(3,5-dicyano-1,2,6-trimethyl-1,4-dihydropyridin-4-yl)-7-ethyl-6-fluoro-1H-indazol-3-yl]-1-(propan-2-yl)-1H-pyrazole-5-carboxamide]", "pIC50": 6.86}, {"smiles": "CC1=C(C#N)C(c2cc3c(NC(=O)c4cn(CC(C)(C)O)nc4C(F)(F)F)n[nH]c3c(C)c2F)C(C#N)=C(C)N1C", "note": "[Example 17, N-[5-(3,5-dicyano-1,2,6-trimethyl-1,4-dihydropyridin-4-yl)-6-fluoro-7-methyl-1H-indazol-3-yl]-1-(2-hydroxy-2-methylpropyl)-3-(trifluoromethyl)-1H-pyrazole-4-carboxamide]", "pIC50": 8.10}, {"smiles": "CC1=C(C#N)C(c2cc3c(NC(=O)C(C)c4cccnc4)n[nH]c3c(C)c2F)C(C#N)=C(C)N1C", "note": "(racemic) [Example 21, (rac)-N-[5-(3,5-dicyano-1,2,6-trimethyl-1,4-dihydropyridin-4-yl)-6-fluoro-7-methyl-1H-indazol-3-yl]-2-(pyridin-3-yl)propanamide]", "pIC50": 7.08}, {"smiles": "CC1=C(C#N)C(c2cc3c(NC(=O)Cc4ccc(C)nc4)n[nH]c3c(C)c2F)C(C#N)=C(C)N1C", "note": "[Example 14, N-[5-(3,5-dicyano-1,2,6-trimethyl-1,4-dihydropyridin-4-yl)-6-fluoro-7-methyl-1H-indazol-3-yl]-2-(6-methylpyridin-3-yl)acetamide]", "pIC50": 7.67}, {"smiles": "CC1=C(C#N)C(c2cc3c(NC(=O)c4ccc(OCCN5CCCC5)cc4)n[nH]c3c(C)c2F)C(C#N)=C(C)N1C", "note": "[Example 13, N-[5-(3,5-dicyano-1,2,6-trimethyl-1,4-dihydropyridin-4-yl)-6-fluoro-7-methyl-1H-indazol-3-yl]-4-[2-(pyrrolidin-1-yl)ethoxy]benzamide]", "pIC50": 7.87}]}]}
